The experiment relates to cardiomyocyte culture. As to the kind of experiment: Global conduction velocity (GCV) of beat propagation measured on a microelectrode array. It is filed as cell-based. The conditions noted are these: increasing flecainide concentration; FIG. 8C. The text has this:
example, within 30 ms). FIG. 6A is a representation of an array of electrodes 22 of an exemplary well of a MEA 20 having electrodes 22 spaced 200 μm from one another in the vertical and horizontal directions. It is to be appreciated that the number of electrodes 22 and the spacing shown in FIG. 6A are for example purposes only and greater or fewer electrodes 22 can be used and the spacing can also differ from what is shown. […] The beat timestamps, or arrival times, on the neighboring beat receiving electrodes can be used to generate a data array of delay times, as shown in Table 1. […] For the exemplary beat shown in Table 1, the beat starting electrode 30 is represented by the data point in column 1, row 2. The delay time (tdi) at each electrode 22 is the difference between the beat arrival time (ti) on that particular beat receiving electrode 22 and the beat start time, to, at the beat starting electrode 30. tdi=ti−t0 The velocity at which a beat propagates through the cellular network, or the conduction velocity, is a useful parameter for assessing a cardiomyocyte culture. However, the conduction velocity can vary depending upon the location within the cell culture, and thus it is another example of a parameter that is subject to spatial variability. […]

“Also recorded” adds a separate entry of the source.

In the case of `O=C(NCC1CCCCN1)c1cc(OCC(F)(F)F)ccc1OCC(F)(F)F` (stereo not shown) [flecainide], the “conduction velocity using the GCV method” value is on record as “systematically reduced; also recorded: slows”.

The record behind these values is patent publication US10969382B2, “Systems and methods for assessing data collected from an electrically active cell culture” (Axion BioSystems, Inc., priority 2015, dated 2021).
